Data reported in PubChem BioAssay (NCI).
Several values for one entry are separate records, joined by “and”; a condition that tells them apart may be missing. Equal values may be shown once.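 Grown in 96-well plates, cells were treated for 48 hours with each compound at five concentrations. Insufficient inhibition: endpoint recorded as highest concentration tested. Here, GI50 denotes the concentration required for 50% inhibition of growth. TGI is the concentration that stops growth completely.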

What was measured:
Test in all cases: growth of human tumour cells (NCI), 48 h
DLD-1 colon = tested on: DLD-1 colon
DMS 273 small cell lung = tested on: DMS 273 small cell lung
DU-145 prostate = tested on: DU-145 prostate
LXFL 529 NSCLC = tested on: LXFL 529 NSCLC
MDA-MB-435 = tested on: MDA-MB-435
OVCAR-8 ovarian = tested on: OVCAR-8 ovarian
PC-3 prostate = tested on: PC-3 prostate
SK-MEL-2 melanoma = tested on: SK-MEL-2 melanoma
SK-OV-3 ovarian = tested on: SK-OV-3 ovarian
SN12C renal = tested on: SN12C renal
SNB-78 CNS = tested on: SNB-78 CNS
SR leukemia = tested on: SR leukemia

Row | Compound | TGI (DLD-1 colon) | TGI (DMS 273 small cell lung) | TGI (DU-145 prostate) | TGI (LXFL 529 NSCLC) | TGI (MDA-MB-435) | TGI (OVCAR-8 ovarian) | TGI (PC-3 prostate) | TGI (SK-MEL-2 melanoma) | TGI (SK-OV-3 ovarian) | TGI (SN12C renal) | TGI (SNB-78 CNS) | TGI (SR leukemia) | GI50 (OVCAR-8 ovarian) | GI50 (SK-MEL-2 melanoma) | GI50 (SK-OV-3 ovarian) | GI50 (SN12C renal) | GI50 (SR leukemia)
1 | O=C1/C(=C\c2ccccc2)CN(C(=O)CCN2CCCCC2)C/C1=C/c1ccccc1 | 3.12 µM | 3.1 µM | 17.9 µM | 3.05 µM | 6.37 µM | 5.47 µM | 3.25 µM | 4.44 µM | 9.77 µM | 2.48 µM | 10.6 µM | 14.5 µM | – | – | – | – | –
2 | CC1=C(C(=O)Nc2ccccc2)C(c2ccc(N(C)C)cc2)C(C(=O)Nc2ccccc2)=C(C)N1 | > 100 µM | > 31.8 µM | > 91.7 µM | > 100 µM | > 26.7 µM | > 100 µM | > 100 µM | > 100 µM | > 100 µM | > 100 µM | > 100 µM | > 92.8 µM | – | – | – | – | –
3 | COC1N(C2CC(O)C(CO)O2)C(=O)NC(=O)C1(F)Br (stereo not drawn) | 50 µM | 50 µM | > 100 µM | 50 µM | > 100 µM | 50 µM and > 100 µM | > 100 µM | > 100 µM | > 100 µM | 50 µM and > 100 µM | > 50 µM | 50 µM and > 100 µM | 22.5 µM | > 50 µM | 99.4 µM | 15.6 µM | 25.1 µM
4 | CCCCCCN(CCCCCC)C(=S)N/N=C(\C)c1ccccn1 | 2.93 µM | 3.92 µM | 2.59 µM | 1.45 µM | 3.7 µM | 3.38 µM | 1.88 µM | 3.02 µM | 2.77 µM | 2.56 µM | 2.34 µM | 11.5 µM | – | – | – | – | –
